Assay results from patent publication US6355658B1, “Coumarin derivatives, methods of preparation and application as medicines” (Centre National de la Recherche Scientifique, priority 1997, dated 2002).

Structure (SMILES)	melting point
O=C(Oc1cc(F)ccc1[N+](=O)[O-])c1cc2ccccc2oc1=O [Ia7, 5-fluoro-2-nitrophenyl 2-oxo-2H-1-benzopyran-3-carboxylate]	219 to 223 °C
O=C(OC1CCCCCCC1)c1cc2cc(CCl)ccc2oc1=O [Ic′3, cyclooctyl 6-chloromethyl-2-oxo-2H-1-benzopyran-3-carboxylate]	169 to 170 °C
O=C(Nc1cccnc1)c1cc2cc(CCl)ccc2oc1=O [II1, N-(3-pyridyl)-6-chloromethyl-2-oxo-2H-1-benzopyran-3-carboxamide]	270 °C (dec.)
O=C(Oc1cccc2cnccc12)c1cc2ccccc2oc1=O [Ia9, 5-isoquinolyl 2-oxo-2H-1-benzopyran-3-carboxylate]	190 to 193 °C
O=C(OC1CCCCCC1)c1cc2cc(CCl)ccc2oc1=O [Ic′2, cycloheptyl 6-chloromethyl-2-oxo-2H-1-benzopyran-3-carboxylate]	171 to 174 °C
COc1ccc(NC(=O)c2cc3cc(CCl)ccc3oc2=O)cn1 [II3, N-(6-methoxy-3-pyridyl)-6-chloromethyl-2-oxo-2H-1-benzopyran-3-carboxamide]	225 °C (dec.)
O=C(NSc1ncccc1[N+](=O)[O-])c1cc2cc(CCl)ccc2oc1=O [IV1, N-[(3-nitro-2-pyridyl)sulfanyl]-6-chloromethyl-2-oxo-2H-1-benzopyran-3-carboxamide]	252 to 254 °C
O=C(Oc1cc(F)ccc1Br)c1cc2ccccc2oc1=O [Ia6, 2-bromo-5-fluorophenyl 2-oxo-2H-1-benzopyran-3-carboxylate]	173 to 175 °C
CC(=O)OCc1ccc2oc(=O)c(C(=O)Oc3cc([N+](=O)[O-])ccc3[N+](=O)[O-])cc2c1	162 to 164 °C
O=C(OC1CCCCCCCCCCC1)c1cc2cc(CCl)ccc2oc1=O [Ic′4, cyclododecyl 6-chloromethyl-2-oxo-2H-1-benzopyran-3-carboxylate]	164 to 167 °C
O=C(Nc1cccnc1Cl)c1cc2cc(CCl)ccc2oc1=O [II2, N-(2-chloro-3-pyridyl)-6-chloromethyl-2-oxo-2H-1-benzopyran-3-carboxamide]	211 °C (dec.)
Cc1ccc2oc(=O)c(C(=O)Oc3cccc4cnccc34)cc2c1 [Ib8, 5-isoquinolyl 6-methyl-2-oxo-2H-1-benzopyran-3-carboxylate]	188 to 190 °C

Other lines, results leading:

melting point	Structure (SMILES)
190 to 193 °C	O=C(Oc1cccnc1[N+](=O)[O-])c1cc2cc(CCl)ccc2oc1=O [Ic′″7, 2-nitro-3-pyridyl 6-chloromethyl-2-oxo-2H-1-benzopyran-3-carboxylate]
205 to 208 °C	O=C(Oc1ccc2ncccc2c1)c1cc2cc(CCl)ccc2oc1=O [Ic″″2, 6-quinolyl 6-chloromethyl-2-oxo-2H-1-benzopyran-3-carboxylate]
203 to 208 °C	Cc1ccc(OC(=O)c2cc3cc(CCl)ccc3oc2=O)c([N+](=O)[O-])n1 [Ic′″8, 6-methyl-2-nitro-3-pyridyl 6-chloromethyl-2-oxo-2H-1-benzopyran-3-carboxylate]
205 to 208 °C	Cc1ccc(OC(=O)c2cc3cc(CCl)ccc3oc2=O)cn1 [Ic′″3, 6-methyl-3-pyridyl 6-chloromethyl-2-oxo-2H-1-benzopyran-3-carboxylate]
197 to 199 °C	O=C(Oc1cccnc1Br)c1cc2cc(CCl)ccc2oc1=O [Ic′″6, 2-bromo-3-pyridyl 6-chloromethyl-2-oxo-2H-1-benzopyran-3-carboxylate]
225 to 229 °C	Cc1ccc2oc(=O)c(C(=O)Oc3cc([N+](=O)[O-])ccc3[N+](=O)[O-])cc2c1
198 to 200 °C	O=C(Oc1cccnc1Cl)c1cc2cc(CCl)ccc2oc1=O [Ic′″4, 2-chloro-3-pyridyl 6-chloromethyl-2-oxo-2H-1-benzopyran-3-carboxylate]
205 to 208 °C	O=C(Oc1cc(F)ccc1[N+](=O)[O-])c1cc2cc(CCl)ccc2oc1=O [Ic″10, 5-fluoro-2-nitrophenyl 6-chloromethyl-2-oxo-2H-1-benzopyran-3-carboxylate]
